We go through three compounds from EP3046573B1, “AMYLIN ANALOGUES” (Zealand Pharma A/S, priority 2013, dated 2015).

Series [1] in a line: Solubility assessment (turbidity absorbance at 325 nm). The settings on record: stock 2 mg/ml diluted 1:1, ambient temperature (typically 25°C), n=1; for Solubility, Acetate buffer pH 4: 100 mM acetate buffer pH 4.0; for Solubility, Acetate buffer pH 5: 100 mM acetate buffer pH 5.0; for Solubility, Histidine buffer pH 6: 100 mM histidine buffer pH 6.0; for Solubility, Histidine buffer pH 7: 100 mM histidine buffer pH 7.0; for Solubility, Phosphate buffer pH 6: 100 mM phosphate buffer pH 6.0; for Solubility, Phosphate buffer pH 7: 100 mM phosphate buffer pH 7.0; for Solubility, Phosphate buffer pH 7.5: 100 mM phosphate buffer pH7.5. In kind it is physicochemical. A digest of the protocol: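 Turbidity read as absorbance at 325 nm (also 280 nm), single samples at ambient temperature (typically 25°C); ≤ 0.02 units counts as ≥ 1 mg/ml soluble. Samples made by 1:1 dilution of a 2 mg/ml acidic stock into 100 mM acetate, histidine or phosphate buffers, pH 4.0–7.5.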

Series [2] can be described thus: Assessment of physical stability: fibril formation detected with Thioflavin T (ThT), lag-time. The settings on record: 1 mg/ml peptide, 40 µM ThT, FND = Fibrillation not detected; for Fibrillation lag time (hours) pH 4.0 (Ac): 50 mM acetate buffer pH 4.0, 96 hours at 40°C; for Fibrillation lag time (hours) pH 7.0 (His): 50 mM histidine buffer pH 7.0, 96 hours at 40°C; for Fibrillation lag time (hours) pH 7.0 (Ph): 50 mM phosphate buffer pH 7.0, 96 hours at 40°C. In kind it is physicochemical. The procedure, abridged: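 Test peptide at 1 mg/ml with 40 µM ThT in 50 mM phosphate (pH 7.0), 50 mM histidine (pH 7.0) or 50 mM acetate (pH 4.0), in triplicate, 40° C. for 96 h. Fluorescence read every 10 min after 300 s agitation. Lag-time (h) taken as intersection of linear fits to initial stable and growth phases.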

For series [3], the system named is Sprague Dawley (SD) rats. Kind of series: Acute food intake and body weight in normal Sprague Dawley rats. As to conditions: vehicle-corrected, dose 30 nmol/kg sc, once; for Body weight loss (%) after 96 hours: mean ± SEM, n = 8. In kind it is in vivo. How it is done: Sprague Dawley (SD) rats were obtained from Taconic A/S, Denmark. The animals arrived at least 7 days before the study start to allow acclimatization to experimental conditions. From arrival and throughout the study, the rats were housed in groups of 2 (n = 2) in a light-, temperature- and humidity-controlled room (reversed 12/12 h light/dark cycle: lights turned off during day-time and on during night-time; temperature 20-22°C; relative humidity 50-80%). Animals had access ad libitum to food (Altromin™ 1324, Brogaarden A/S, Gentofte, Denmark) and water (domestic quality tap water with citric acid added to pH ∼ 3.6) during the entire study. Stratification of rats was based on body weight (BW) on a cage-by-cage basis; mean BWs per cage were used as the basis for pairing four cages together in a group (n = 8 per group). A vehicle group and positive control group were included in each set of tests. Rats were dosed subcutaneously (sc) once in the morning immediately before turning off the lights, using a body weight-corrected dose of peptide (30 nmol/kg). Dosing volume was 5 ml/kg. Food intake was recorded manually at t = 0 (pre-dose) and at t = 4, 7, 10, 24, 48, 72 and 96 hours after dosing. Body weight was measured daily.
Statistical analyses on body weight were performed using GraphPad™ Prism version 5. The measured parameters were compared using unpaired t tests. Differences were considered statistically significant at p < 0.05. Data are means ± SEM; n =8.

Numbered stars: 1 amine (or outer) side, 2 acyl side, 3 side chain; on linkers, the order of the positions; unused ones are H or OH. Bridge positions count the residues as written; N and C are the ends. Square brackets hold non-standard residues; d marks the D form. Peptide text beside a SMILES is read from it. * marks the point of attachment. C20 diacid = O=C(O)CCCCCCCCCCCCCCCCCCC(=O)*; γGlu = O=C(O)[C@H](CCC(=O)[*:2])N[*:1]; NMeI = CC[C@H](C)[C@H](NC)C(=O)O; Sar = CNCC(=O)O

Consider `CC[C@H](C)[C@@H](C(=O)N[C@@H](CC(C)C)C(=O)N[C@@H](CO)C(=O)N[C@@H](CO)C(=O)N[C@H](C(=O)N[C@@H](CC(N)=O)C(=O)N[C@H](C(=O)NCC(=O)N[C@@H](CO)C(=O)N[C@@H](CC(N)=O)C(=O)N[C@H](C(=O)N1CCC[C@H]1C(N)=O)[C@@H](C)O)C(C)C)[C@@H](C)O)N(C)C(=O)[C@H](C)NC(=O)CN(C)C(=O)[C@H](Cc1ccccc1)NC(=O)[C@H](CC(N)=O)NC(=O)[C@H](CC(N)=O)NC(=O)[C@H](CO)NC(=O)[C@H](CO)NC(=O)[C@H](CCCNC(=N)N)NC(=O)[C@H](Cc1c[nH]cn1)NC(=O)[C@H](CC(C)C)NC(=O)[C@H](Cc1ccccc1)NC(=O)[C@H](CCC(=O)O)NC(=O)[C@H](C)NC(=O)[C@H](CC(C)C)NC(=O)[C@H](CCCNC(=N)N)NC(=O)[C@H](CCC(N)=O)NC(=O)[C@@H](NC(=O)[C@H](C)NC(=O)[C@@H]1CSSC[C@H](NC(=O)[C@H](CCCNC(=N)N)NC(=O)CC[C@H](NC(=O)CCCCCCCCCCCCCCCCCCC(=O)O)C(=O)O)C(=O)N[C@@H](CC(N)=O)C(=O)N[C@@H]([C@@H](C)O)C(=O)N[C@@H](C)C(=O)N[C@@H]([C@@H](C)O)C(=O)N1)[C@@H](C)O` [Compound 18, [19CD]-isoGlu-RC()NTATC()ATQRLAEFLHRSSNNF-Gly(Me)-A-Ile(Me)-LSSTNVGSNTP-NH2] ({C20 diacid-γGlu}-RCNTATCATQRLAEFLHRSSNNF[Sar]A[NMeI]LSSTNVGSNTP-NH2; disulfide 2-7), for which, in series [1], the “Solubility, Acetate buffer pH 4” value was “SS (SS indicates solubility ≥ 1mg/ml)”; the “Solubility, Acetate buffer pH 5” value is listed as “SS (SS indicates solubility ≥ 1mg/ml)”; the “Solubility, Histidine buffer pH 6” value was “SS (SS indicates solubility ≥ 1mg/ml)”; the “Solubility, Histidine buffer pH 7” value was “SS (SS indicates solubility ≥ 1mg/ml)”. Also, in series [1], the “Solubility, Phosphate buffer pH 6” value is “SS (SS indicates solubility ≥ 1mg/ml)”; the “Solubility, Phosphate buffer pH 7” value is listed as “SS (SS indicates solubility ≥ 1mg/ml)”; the “Solubility, Phosphate buffer pH 7.5” value is on record as “SS (SS indicates solubility ≥ 1mg/ml)”. Further, in series [2], the “Fibrillation lag time (hours) pH 4.0 (Ac)” value (“Fibrillation lag time … (Ac)” below) turned out to be 20 hours, the “Fibrillation lag time (hours) pH 7.0 (His)” value (from here on “Fibrillation lag time … (His)”) turned out to be 33 hours and the “Fibrillation lag time (hours) pH 7.0 (Ph)” value (“Fibrillation lag time … (Ph)” below) was 33 hours. Moreover, in series [3], the “Food intake inhibition (%) after 48 hours” value (from here on “Food intake inhibition (%)”) turned out to be 98% and the “Body weight loss (%) after 96 hours” value was found to be 13 ± 0.8%.

As to `CC[C@H](C)[C@@H](C(=O)N[C@@H](CC(C)C)C(=O)N[C@H](CO)C(=O)N[C@@H](CO)C(=O)N[C@H](C(=O)N[C@@H](CC(N)=O)C(=O)N[C@H](C(=O)NCC(=O)N[C@@H](CO)C(=O)N[C@@H](CC(N)=O)C(=O)N[C@H](C(=O)N1CCC[C@H]1C(N)=O)[C@@H](C)O)C(C)C)[C@@H](C)O)N(C)C(=O)[C@H](C)NC(=O)CN(C)C(=O)[C@@H](Cc1ccccc1)NC(=O)[C@H](CC(N)=O)NC(=O)[C@H](CC(N)=O)NC(=O)[C@H](CO)NC(=O)[C@H](CO)NC(=O)[C@H](CCCNC(=N)N)NC(=O)[C@H](Cc1c[nH]cn1)NC(=O)[C@H](CC(C)C)NC(=O)[C@H](Cc1ccccc1)NC(=O)[C@H](CCC(=O)O)NC(=O)[C@H](C)NC(=O)[C@H](CC(C)C)NC(=O)[C@H](CCCNC(=N)N)NC(=O)[C@H](CCC(N)=O)NC(=O)[C@@H](NC(=O)[C@H](C)NC(=O)[C@@H]1CSSC[C@H](NC(=O)[C@H](CCCCN)NC(=O)CC[C@H](NC(=O)CCCCCCCCCCCCCCCCCCC(=O)O)C(=O)O)C(=O)N[C@@H](CC(N)=O)C(=O)N[C@@H]([C@@H](C)O)C(=O)N[C@@H](C)C(=O)N[C@@H]([C@@H](C)O)C(=O)N1)[C@@H](C)O` [Compound 72, [19CD]-isoGlu-KC()NTATC()ATQRLAEFLHRSSNN-DPhe-Gly(Me)-A-Ile(Me)-L-DSer-STNVGSNTP] ({C20 diacid-γGlu}-KCNTATCATQRLAEFLHRSSNN[dF][Sar]A[NMeI]L[dS]STNVGSNTP-NH2; disulfide 2-7), in series [1], the “Solubility, Acetate buffer pH 4” value is listed as “SS (SS indicates solubility ≥ 1mg/ml)”; the “Solubility, Acetate buffer pH 5” value is given as “SS (SS indicates solubility ≥ 1mg/ml)”; the “Solubility, Histidine buffer pH 6” value is “SS (SS indicates solubility ≥ 1mg/ml)”; the “Solubility, Histidine buffer pH 7” value is “SS (SS indicates solubility ≥ 1mg/ml)”. In series [1], the “Solubility, Phosphate buffer pH 6” value is listed as “SS (SS indicates solubility ≥ 1mg/ml)”; the “Solubility, Phosphate buffer pH 7” value is “SS (SS indicates solubility ≥ 1mg/ml)”; the “Solubility, Phosphate buffer pH 7.5” value was “SS (SS indicates solubility ≥ 1mg/ml)”. Besides, in series [2], the “Fibrillation lag time … (Ac)” value is “FND”, the “Fibrillation lag time … (His)” value was “FND” and the “Fibrillation lag time … (Ph)” value was “FND”. Moreover, in series [3], the “Food intake inhibition (%)” value worked out at 99% and the “Body weight loss (%) after 96 hours” value is reported as 12 ± 1.2%.

For the compound `CC[C@H](C)[C@@H](C(=O)N[C@@H](CC(C)C)C(=O)N[C@@H](CO)C(=O)N[C@@H](CO)C(=O)N[C@H](C(=O)N[C@@H](CC(=O)O)C(=O)N[C@H](C(=O)NCC(=O)N[C@@H](CO)C(=O)N[C@@H](CC(=O)O)C(=O)N[C@H](C(=O)N1CCC[C@H]1C(N)=O)[C@@H](C)O)C(C)C)[C@@H](C)O)N(C)C(=O)[C@H](C)NC(=O)CN(C)C(=O)[C@H](Cc1ccccc1)NC(=O)[C@H](CO)NC(=O)[C@H](CO)NC(=O)[C@H](CO)NC(=O)[C@H](CO)NC(=O)[C@H](CCCNC(=N)N)NC(=O)[C@H](Cc1c[nH]cn1)NC(=O)[C@H](CC(C)C)NC(=O)[C@H](Cc1ccccc1)NC(=O)[C@H](CCC(=O)O)NC(=O)[C@H](C)NC(=O)[C@H](CC(C)C)NC(=O)[C@H](CCCNC(=N)N)NC(=O)[C@H](CCC(N)=O)NC(=O)[C@@H](NC(=O)[C@H](C)NC(=O)[C@@H]1CSSC[C@H](NC(=O)[C@H](CCCNC(=N)N)NC(=O)CC[C@H](NC(=O)CCCCCCCCCCCCCCCCCCC(=O)O)C(=O)O)C(=O)N[C@@H](CC(N)=O)C(=O)N[C@@H]([C@@H](C)O)C(=O)N[C@@H](C)C(=O)N[C@@H]([C@@H](C)O)C(=O)N1)[C@@H](C)O` [Compound 73, [19CD]-isoGlu-RC()NTATC()ATQRLAEFLHRSSSSF-Gly(Me)-A-Ile(Me)-LSSTDVGSDTP-NH2] ({C20 diacid-γGlu}-RCNTATCATQRLAEFLHRSSSSF[Sar]A[NMeI]LSSTDVGSDTP-NH2; disulfide 2-7), in series [1], the “Solubility, Acetate buffer pH 4” value is “SS (SS indicates solubility ≥ 1mg/ml)”; the “Solubility, Acetate buffer pH 5” value was “II (II indicates solubility ≤ 1 mg/ml)”; the “Solubility, Histidine buffer pH 6” value is “SS (SS indicates solubility ≥ 1mg/ml)”; the “Solubility, Histidine buffer pH 7” value was “SS (SS indicates solubility ≥ 1mg/ml)”. Also, in series [1], the “Solubility, Phosphate buffer pH 6” value is reported as “SS (SS indicates solubility ≥ 1mg/ml)”; the “Solubility, Phosphate buffer pH 7” value is recorded as “SS (SS indicates solubility ≥ 1mg/ml)”; the “Solubility, Phosphate buffer pH 7.5” value is listed as “SS (SS indicates solubility ≥ 1mg/ml)”. In addition, in series [2], the “Fibrillation lag time … (Ac)” value is “FND”, the “Fibrillation lag time … (His)” value is recorded as “FND” and the “Fibrillation lag time … (Ph)” value is recorded as “FND”. In series [3], the “Food intake inhibition (%)” value came out at 93% and the “Body weight loss (%) after 96 hours” value stood at 11 ± 1.8%.
